Test results as given in patent US20230074545A1, “TREATMENT OF CANCER WITH CDK12/13 INHIBITORS” (Kinnate Biopharma Inc., priority 2019, published 2023).

Experiments:
Assay in all cases: Radiometric kinase panel
Format in all cases: biochemical
[1] = biological target: T1, MARK4 (Homo sapiens, UniProt Q96L34)
T1 construct: purchased ProQinase GmbH (Reaction Biology)
In short: (§1)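 Activity was measured radiometrically from [gamma-33P]-ATP incorporation into substrate. The kinases were recombinant human GST- or His-tagged proteins, full-length or active fragments, expressed in Sf9 or E. coli. Compound in 10% DMSO was added before the enzyme/substrate mix, which started the reaction.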

[2] = biological target: T2, ACVR1B (Homo sapiens, UniProt P36896)
T2 construct: purchased ProQinase GmbH (Reaction Biology); host or cells: Sf9 insect cells or E. coli (not specified per kinase)
In short: as §1

[3] = biological target: T3, PKCnu (Homo sapiens, UniProt O94806)
T3 construct: either as full-length or enzymatically active fragments; purchased ProQinase GmbH (Reaction Biology)
In short: as §1

[4] = biological target: T4, STK17A (Homo sapiens, UniProt Q9UEE5)
T4 construct: either as full-length or enzymatically active fragments; purchased ProQinase GmbH (Reaction Biology)
In short: as §1

[5] = biological target: T5, GRK3 (Homo sapiens, UniProt P35626)
T5 construct: either as full-length or enzymatically active fragments; purchased ProQinase GmbH (Reaction Biology)
T5 sequence (P35626 whole entry, the tested form may be a part): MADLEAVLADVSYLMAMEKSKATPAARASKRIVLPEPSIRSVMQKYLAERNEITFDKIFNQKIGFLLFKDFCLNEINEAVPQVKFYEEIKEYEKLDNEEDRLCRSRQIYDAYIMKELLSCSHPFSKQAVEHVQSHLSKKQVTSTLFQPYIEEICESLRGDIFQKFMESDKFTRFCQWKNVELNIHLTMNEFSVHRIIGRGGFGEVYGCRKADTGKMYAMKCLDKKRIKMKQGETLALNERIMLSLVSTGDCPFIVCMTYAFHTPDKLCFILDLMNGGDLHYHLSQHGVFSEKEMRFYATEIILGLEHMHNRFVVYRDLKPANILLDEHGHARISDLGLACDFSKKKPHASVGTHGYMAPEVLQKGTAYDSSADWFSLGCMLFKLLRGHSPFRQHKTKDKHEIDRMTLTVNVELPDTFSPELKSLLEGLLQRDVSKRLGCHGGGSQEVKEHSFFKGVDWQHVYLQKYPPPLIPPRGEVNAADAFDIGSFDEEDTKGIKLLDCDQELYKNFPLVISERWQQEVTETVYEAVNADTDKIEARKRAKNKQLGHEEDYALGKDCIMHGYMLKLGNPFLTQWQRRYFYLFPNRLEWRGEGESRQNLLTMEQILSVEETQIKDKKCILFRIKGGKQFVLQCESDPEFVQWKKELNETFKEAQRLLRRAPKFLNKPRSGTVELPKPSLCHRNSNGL
In short: as §1

[6] = biological target: T6, FRK (Homo sapiens, UniProt P42685)
T6 construct: either as full-length or enzymatically active fragments; purchased ProQinase GmbH (Reaction Biology)
In short: as §1

[7] = biological target: T7, TXK (Homo sapiens, UniProt P42681)
T7 construct: either as full-length or enzymatically active fragments; purchased ProQinase GmbH (Reaction Biology)
In short: as §1

[8] = biological target: T8, JNK2 (Homo sapiens, UniProt P45984)
T8 construct: either as full-length or enzymatically active fragments; purchased ProQinase GmbH (Reaction Biology)
In short: as §1

[9] = biological target: T9, EPHB1 (Homo sapiens, UniProt P54762)
T9 construct: either as full-length or enzymatically active fragments; purchased ProQinase GmbH (Reaction Biology)
In short: as §1

[10] = biological target: T10, PRK2 (Homo sapiens, UniProt Q16513)
T10 construct: either as full-length or enzymatically active fragments; purchased ProQinase GmbH (Reaction Biology)
In short: as §1

[11] = biological target: T11, PKCtheta (Homo sapiens, UniProt Q04759)
T11 construct: purchased ProQinase GmbH (Reaction Biology); host or cells: Sf9 insect cells or E. coli (not specified per kinase)
In short: as §1

[12] = biological target: T12, ACVR2B (Homo sapiens, UniProt Q13705)
T12 construct: either as full-length or enzymatically active fragments; purchased ProQinase GmbH (Reaction Biology)
In short: as §1

[13] = biological target: T13, ABL1 (Homo sapiens, UniProt P00519)
T13 construct: purchased ProQinase GmbH (Reaction Biology)
In short: as §1

[14] = biological target: T14, MST1 (Homo sapiens, UniProt Q13043)
T14 construct: purchased ProQinase GmbH (Reaction Biology); host or cells: Sf9 insect cells or E. coli (not specified per kinase)
In short: as §1

[15] = biological target: T15, AXL (Homo sapiens, UniProt P30530)
T15 construct: either as full-length or enzymatically active fragments; purchased ProQinase GmbH (Reaction Biology)
In short: as §1

[16] = biological target: T16, DMPK (Homo sapiens, UniProt Q09013)
T16 construct: either as full-length or enzymatically active fragments; purchased ProQinase GmbH (Reaction Biology); host or cells: Sf9 insect cells or E. coli
T16 sequence (Q09013 whole entry, the tested form may be a part): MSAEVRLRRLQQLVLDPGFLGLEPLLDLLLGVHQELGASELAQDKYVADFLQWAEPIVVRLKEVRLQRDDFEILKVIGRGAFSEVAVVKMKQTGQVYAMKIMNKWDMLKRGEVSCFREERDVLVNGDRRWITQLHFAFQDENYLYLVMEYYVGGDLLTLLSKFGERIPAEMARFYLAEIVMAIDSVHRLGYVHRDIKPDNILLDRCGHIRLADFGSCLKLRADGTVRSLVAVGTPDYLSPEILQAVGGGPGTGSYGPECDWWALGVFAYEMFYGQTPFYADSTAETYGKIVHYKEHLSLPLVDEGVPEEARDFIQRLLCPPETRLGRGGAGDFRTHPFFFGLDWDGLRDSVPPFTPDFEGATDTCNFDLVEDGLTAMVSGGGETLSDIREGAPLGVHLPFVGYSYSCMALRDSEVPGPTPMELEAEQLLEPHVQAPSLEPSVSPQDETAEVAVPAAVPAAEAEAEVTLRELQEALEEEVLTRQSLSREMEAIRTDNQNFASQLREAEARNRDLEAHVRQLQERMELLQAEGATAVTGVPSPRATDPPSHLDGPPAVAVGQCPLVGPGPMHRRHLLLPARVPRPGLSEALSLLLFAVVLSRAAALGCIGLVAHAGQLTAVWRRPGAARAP
In short: as §1

[17] = biological target: T17, ASK1 (Homo sapiens, UniProt Q99683)
T17 construct: either as full-length or enzymatically active fragments; purchased ProQinase GmbH (Reaction Biology)
T17 sequence (Q99683 whole entry, the tested form may be a part): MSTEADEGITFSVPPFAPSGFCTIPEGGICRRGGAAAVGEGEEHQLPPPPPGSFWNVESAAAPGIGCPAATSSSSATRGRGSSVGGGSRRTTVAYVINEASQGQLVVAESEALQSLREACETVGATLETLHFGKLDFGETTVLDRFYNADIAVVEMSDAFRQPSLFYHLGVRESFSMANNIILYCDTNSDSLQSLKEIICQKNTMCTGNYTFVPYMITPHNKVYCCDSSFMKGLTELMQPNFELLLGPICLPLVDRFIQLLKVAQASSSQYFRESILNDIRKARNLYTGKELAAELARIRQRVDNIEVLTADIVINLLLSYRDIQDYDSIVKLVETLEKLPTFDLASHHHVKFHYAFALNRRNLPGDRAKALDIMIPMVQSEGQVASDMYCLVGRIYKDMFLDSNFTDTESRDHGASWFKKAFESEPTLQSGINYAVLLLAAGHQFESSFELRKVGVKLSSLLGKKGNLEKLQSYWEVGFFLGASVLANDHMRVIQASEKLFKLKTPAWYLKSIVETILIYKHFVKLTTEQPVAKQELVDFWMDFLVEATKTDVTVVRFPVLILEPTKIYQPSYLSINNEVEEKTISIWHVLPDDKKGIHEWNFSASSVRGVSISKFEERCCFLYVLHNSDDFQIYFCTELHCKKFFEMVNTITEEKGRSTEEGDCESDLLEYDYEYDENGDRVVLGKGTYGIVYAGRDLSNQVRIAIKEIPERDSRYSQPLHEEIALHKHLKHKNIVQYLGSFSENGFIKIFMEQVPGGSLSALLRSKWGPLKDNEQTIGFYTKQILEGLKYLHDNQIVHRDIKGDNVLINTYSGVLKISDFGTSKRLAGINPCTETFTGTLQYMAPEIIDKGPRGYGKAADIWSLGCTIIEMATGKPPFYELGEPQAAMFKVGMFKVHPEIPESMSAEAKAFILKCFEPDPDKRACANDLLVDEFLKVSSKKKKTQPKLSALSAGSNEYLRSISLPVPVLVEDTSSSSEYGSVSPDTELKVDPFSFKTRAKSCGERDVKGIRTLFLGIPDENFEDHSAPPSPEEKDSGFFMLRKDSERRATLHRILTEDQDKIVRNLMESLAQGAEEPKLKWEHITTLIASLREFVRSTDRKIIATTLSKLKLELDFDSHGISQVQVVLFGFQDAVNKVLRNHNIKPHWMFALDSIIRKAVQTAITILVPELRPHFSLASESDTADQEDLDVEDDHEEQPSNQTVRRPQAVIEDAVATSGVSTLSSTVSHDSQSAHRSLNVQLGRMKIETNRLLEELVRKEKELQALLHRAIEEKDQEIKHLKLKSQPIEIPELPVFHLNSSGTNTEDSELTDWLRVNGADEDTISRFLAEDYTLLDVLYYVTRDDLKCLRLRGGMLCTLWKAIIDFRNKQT
In short: as §1

[18] = biological target: T18, MAP4K5 (Homo sapiens, UniProt Q9Y4K4)
T18 construct: purchased ProQinase GmbH (Reaction Biology)
In short: as §1

[19] = biological target: T19, p38delta (Homo sapiens, UniProt O15264)
T19 construct: either as full-length or enzymatically active fragments; purchased ProQinase GmbH (Reaction Biology)
In short: as §1

[20] = biological target: T20, MARK1 (Homo sapiens, UniProt Q9P0L2)
T20 construct: purchased ProQinase GmbH (Reaction Biology)
In short: as §1

[21] = biological target: T21, FGR (Homo sapiens, UniProt P09769)
T21 construct: purchased ProQinase GmbH (Reaction Biology)
T21 sequence (P09769 whole entry): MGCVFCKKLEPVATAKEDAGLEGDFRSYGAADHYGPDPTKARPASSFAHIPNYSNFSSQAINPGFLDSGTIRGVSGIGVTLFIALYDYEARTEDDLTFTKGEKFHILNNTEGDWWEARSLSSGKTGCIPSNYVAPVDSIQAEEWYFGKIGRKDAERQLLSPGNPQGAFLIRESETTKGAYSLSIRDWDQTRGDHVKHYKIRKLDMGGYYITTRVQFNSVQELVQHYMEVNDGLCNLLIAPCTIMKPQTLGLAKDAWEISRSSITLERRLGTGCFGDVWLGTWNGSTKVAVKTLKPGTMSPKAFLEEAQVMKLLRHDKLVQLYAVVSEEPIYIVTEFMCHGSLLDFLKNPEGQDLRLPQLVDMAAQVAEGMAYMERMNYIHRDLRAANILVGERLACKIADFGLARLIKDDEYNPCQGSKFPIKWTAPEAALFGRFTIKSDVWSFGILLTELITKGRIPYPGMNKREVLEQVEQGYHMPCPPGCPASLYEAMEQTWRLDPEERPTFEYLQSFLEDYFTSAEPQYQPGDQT
In short: as §1

[22] = biological target: T22, RPS6KA2 (Homo sapiens, UniProt Q15349)
T22 construct: either as full-length or enzymatically active fragments; purchased ProQinase GmbH (Reaction Biology); host or cells: Sf9 insect cells or E. coli
In short: as §1

[23] = biological target: T23, CDK6/CycD2 (Homo sapiens, UniProt Q00534)
T23 construct: either as full-length or enzymatically active fragments; purchased ProQinase GmbH (Reaction Biology)
In short: as §1

[24] = biological target: T24, EPHA8 (Homo sapiens, UniProt P29322)
T24 construct: either as full-length or enzymatically active fragments; purchased ProQinase GmbH (Reaction Biology); host or cells: Sf9 insect cells or E. coli (not specified per kinase)
In short: as §1

[25] = biological target: T25, CDK16/CycY (Homo sapiens, UniProt Q00536)
T25 construct: either as full-length or enzymatically active fragments; purchased ProQinase GmbH (Reaction Biology)
T25 sequence (Q00536 whole entry, the tested form may be a part): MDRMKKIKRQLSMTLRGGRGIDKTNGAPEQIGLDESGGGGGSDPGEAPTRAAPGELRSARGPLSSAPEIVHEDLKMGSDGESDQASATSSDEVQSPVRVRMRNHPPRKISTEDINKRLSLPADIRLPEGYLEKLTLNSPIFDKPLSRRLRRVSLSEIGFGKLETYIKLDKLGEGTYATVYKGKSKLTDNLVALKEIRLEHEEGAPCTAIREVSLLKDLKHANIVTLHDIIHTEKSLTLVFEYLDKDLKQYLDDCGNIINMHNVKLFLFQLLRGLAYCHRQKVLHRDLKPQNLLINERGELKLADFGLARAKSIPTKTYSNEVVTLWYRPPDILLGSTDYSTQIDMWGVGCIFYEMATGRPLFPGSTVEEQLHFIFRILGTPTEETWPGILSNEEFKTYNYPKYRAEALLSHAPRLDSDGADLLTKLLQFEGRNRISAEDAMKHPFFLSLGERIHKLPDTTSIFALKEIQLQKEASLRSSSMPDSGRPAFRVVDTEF
T25 sequence (Q8ND76 whole entry partner, the tested form may be a part): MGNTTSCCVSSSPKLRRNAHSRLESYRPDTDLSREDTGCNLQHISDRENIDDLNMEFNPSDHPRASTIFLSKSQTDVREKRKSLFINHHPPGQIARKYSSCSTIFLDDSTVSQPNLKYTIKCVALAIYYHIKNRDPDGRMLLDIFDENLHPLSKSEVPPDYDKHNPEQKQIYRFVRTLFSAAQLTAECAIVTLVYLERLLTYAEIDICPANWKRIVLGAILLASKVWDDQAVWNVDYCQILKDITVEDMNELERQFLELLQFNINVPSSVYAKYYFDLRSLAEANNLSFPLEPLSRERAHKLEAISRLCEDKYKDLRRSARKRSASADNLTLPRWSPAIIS
In short: as §1

[26] = biological target: T26, MAP3K10 (Homo sapiens, UniProt Q02779)
T26 construct: either as full-length or enzymatically active fragments; purchased ProQinase GmbH (Reaction Biology)
In short: as §1

[27] = biological target: T27, MAPKAPK3 (Homo sapiens, UniProt Q16644)
T27 construct: either as full-length or enzymatically active fragments; purchased ProQinase GmbH (Reaction Biology)
In short: as §1

[28] = biological target: T28, ABL2 (Homo sapiens, UniProt P42684)
T28 construct: purchased ProQinase GmbH (Reaction Biology)
In short: as §1

[29] = biological target: T29, CLK4 (Homo sapiens, UniProt Q9HAZ1)
T29 construct: purchased ProQinase GmbH (Reaction Biology)
In short: as §1

[30] = biological target: T30, ACVR2A (Homo sapiens, UniProt P27037)
T30 construct: either as full-length or enzymatically active fragments; purchased ProQinase GmbH (Reaction Biology)
In short: as §1

[31] = biological target: T31, PHKG1 (Homo sapiens, UniProt Q16816)
T31 construct: either as full-length or enzymatically active fragments; purchased ProQinase GmbH (Reaction Biology)
In short: as §1

T1 sequence (Q96L34 whole entry): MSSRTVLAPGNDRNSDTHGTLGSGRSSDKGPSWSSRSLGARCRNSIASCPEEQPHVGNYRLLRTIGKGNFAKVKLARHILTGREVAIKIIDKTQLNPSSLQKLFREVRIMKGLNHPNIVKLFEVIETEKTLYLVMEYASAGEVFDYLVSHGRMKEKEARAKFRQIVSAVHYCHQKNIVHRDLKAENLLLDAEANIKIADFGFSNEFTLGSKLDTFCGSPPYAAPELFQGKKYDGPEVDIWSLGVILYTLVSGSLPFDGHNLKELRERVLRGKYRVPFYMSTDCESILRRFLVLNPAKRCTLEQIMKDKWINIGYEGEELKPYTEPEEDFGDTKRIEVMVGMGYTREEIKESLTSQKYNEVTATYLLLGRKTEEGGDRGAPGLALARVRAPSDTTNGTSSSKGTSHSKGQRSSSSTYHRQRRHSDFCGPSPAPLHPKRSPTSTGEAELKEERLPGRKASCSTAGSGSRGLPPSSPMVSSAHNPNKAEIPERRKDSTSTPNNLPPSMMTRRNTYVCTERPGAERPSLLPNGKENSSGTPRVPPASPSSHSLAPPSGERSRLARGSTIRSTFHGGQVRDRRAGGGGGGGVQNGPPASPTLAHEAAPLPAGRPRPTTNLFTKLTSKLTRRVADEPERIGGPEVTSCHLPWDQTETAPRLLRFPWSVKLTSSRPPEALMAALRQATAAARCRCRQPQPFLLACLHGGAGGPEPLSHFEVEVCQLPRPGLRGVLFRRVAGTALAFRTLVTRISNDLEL

C=CC(=O)Nc1ccc(C(=O)N2CC[C@@H](Nc3ncc(C#N)cn3)C2)cc1 [Compound 4, (R)-N-(4-(3-((5-cyanopyrimidin-2-yl)amino)pyrrolidine-1-carbonyl)phenyl)acrylamide]
inhibition at 1 µM [1]: -1% | inhibition at 1 µM [2]: 1% | inhibition at 1 µM [3]: 4% | inhibition at 1 µM [4]: -4% | inhibition at 1 µM [5]: 5% | inhibition at 1 µM [6]: -6% | inhibition at 1 µM [7]: 6% | inhibition at 1 µM [8]: 6% | inhibition at 1 µM [9]: -3% | inhibition at 1 µM [10]: 2% | inhibition at 1 µM [11]: 1% | inhibition at 1 µM [12]: 6% | inhibition at 1 µM [13]: -1% | inhibition at 1 µM [14]: 1% | inhibition at 1 µM [15]: 3% | inhibition at 1 µM [16]: 11% | inhibition at 1 µM [17]: 7% | inhibition at 1 µM [18]: 0% | inhibition at 1 µM [19]: 5% | inhibition at 1 µM [20]: 0% | inhibition at 1 µM [21]: -1% | inhibition at 1 µM [22]: 12% | inhibition at 1 µM [23]: -14% | inhibition at 1 µM [24]: 9% | inhibition at 1 µM [25]: 17% | inhibition at 1 µM [26]: -5% | inhibition at 1 µM [27]: 8% | inhibition at 1 µM [28]: -1% | inhibition at 1 µM [29]: -2% | inhibition at 1 µM [30]: 7% | inhibition at 1 µM [31]: 18%
